According to US11389465B2, “Phosphorylated hexaacyl disaccharides (PHADs) for treating or preventing infections” (VANDERBILT UNIVERSITY, priority 2017, dated 2022):

What was measured:
[1] = Physiological response of burned sheep to MPLA infusion (FIG. 7); assay type: in vivo
Protocol: FIG. 7. MPLA infusion causes transient physiologic changes in burned sheep. Sheep received 20% total body surface area burn followed 24 hours later by vehicle or MPLA ([…]) infusion. Core body temperature, hemodynamics and pulmonary mechanics were measured for 2 hours after initiation of MPLA or vehicle infusions. […] A transient increase in heart rate (HR) and decrease in mean arterial blood pressure (MAP) were also observed in MPLA-treated sheep.
Sheep were instrumented and received a 20% cutaneous burn. At 24 hours after the burn procedure, MPLA (5 ug/kg) was infused in 10 ml of endotoxin-free lactated Ringer's solution over 10 minutes. The sheep developed a transient 1° C. increase in core temperature at 1 hour after the start of infusion (FIG. 7).

P. aeruginosa [2] = test: Pseudomonas pneumonia in burned sheep treated with MPLA (FIG. 14); assay type: in vivo
Protocol: FIG. 14. MPLA treatment improves oxygenation and pulmonary mechanics and attenuates lactate production in sheep with Pseudomonas pneumonia. Studies were undertaken to assess oxygenation, pulmonary mechanics and hemodynamics in burned sheep treated with vehicle or MPLA prior to intrapulmonary challenge with P. aeruginosa. Sheep received a 20% total body surface area thermal burn followed 24 hours later by MPLA infusion. Intrapulmonary P. aeruginosa infection was induced at 24 hours after MPLA infusion. […] Hemodynamics and pulmonary function were measured for 24 hours after Pseudomonas infection.

S. aureus = test: Systemic (intravenous) S. aureus infection in MPLA-primed mice (FIG. 2); assay type: in vivo; conditions: MPLA 20 μg
Protocol: FIG. 2. MPLA induces resistance to S. aureus and C. albicans infection. A) WT BALB/c mice were injected with intravenous MPLA (20 μg/mouse) or vehicle one and two days prior to intravenous inoculation with intravenous 10^8 cfu S. aureus or 10^8 cfu C. albicans. B) Kaplan Meier survival curve of vehicle- and MPLA-primed mice. (n=12 mice/group) after S. aureus inoculation. C) Core (rectal) body temperature assessed daily after S. aureus inoculation. D) S. aureus cfu per gram of tissue recoverable from whole spleen, lung, and kidney in vehicle and MPLA-primed mice at 3 days after S. aureus inoculation. E) Concentration of serum IL-6 2 hours after S. aureus inoculation or vehicle. F) Concentration of serum BUN 3 days after S. aureus inoculation or vehicle. G) Kaplan Meier survival curve of vehicle- and MPLA-primed mice. (n=12 mice/group) after intravenous 10^8 cfu C. albicans inoculation. H) Core (rectal) body temperature after C. albicans inoculation. Data shown as mean+/−SEM. For Kaplan-Meier plots *, p<0.05 via log-rank Mantel-Cox test. Otherwise, *, p<0.05 as determined by ANOVA with Tukey's post-hoc multiple comparison test.
MPLA is also effective in improving survival in models of systemic S. aureus and C. albicans infection. Mice treated with MPLA (20 μg) after a 20% cutaneous burn received intravenous challenge with S. aureus or C. albicans (1×10^8 CFU) on day 5 post-burn (FIG. 2).

P. aeruginosa [3] = conditions: 20 μg IP on 2 consecutive days, compared to vehicle
[4] = Physiological response of non-burned sheep to MPLA infusion (FIG. 6); assay type: in vivo; conditions: 1 hour monitoring
Protocol: FIG. 6. Effects of MPLA infusion at the indicated doses over 10 minutes. Endpoints were recorded over a 1 hour period beginning at the end of the MPLA infusion.
In further studies, the response of sheep to MPLA infusion was assessed (FIG. 6). Instrumented sheep received infusions of MPLA at doses of 5, 10 or 30 ug/kg in 10 ml of endotoxin-free lactated Ringer's solution over 10 minutes. Physiological parameters were monitored for 1 hour after MPLA infusion. […] These observations indicate that sheep have sensitivity to MPLA that is very similar to humans.

[5] = infusion; not at lower doses; cited from earlier work
Pseudomonas aeruginosa = test: Pseudomonas burn wound infection in mice, MPLA given before inoculation (FIG. 1); assay type: in vivo; conditions: MPLA 20 μg
Protocol: FIG. 1. MPLA treatment improves host resistance to Pseudomonas burn wound infection. Mice exposed to a 20% full thickness burn wound were treated with MPLA on days 3 and 4 post-burn and were inoculated with 1×10^8 Pseudomonas aeruginosa in the caudad (area 3) portion of the burn wound. A. Wounds were excised 48 hours after inoculation, sectioned into 3 segments (areas 1-3) and homogenized. Bacterial colony forming units (cfu) were determined by culture on agar plates. B. At 4-6 days after infection, wound and lungs were harvested, homogenized and cultured to measure Pseudomonas cfu. C. Survival was determined after Pseudomonas infection. *p<0.05 compared to vehicle.
Consequently, MPLA is currently employed by Glaxo Smith Kline as a component of the FDA-approved ASO4 vaccine adjuvant system (27, 28). […] It was also shown that total wound bacteria and dissemination of Pseudomonas from the burn wound to the lungs was diminished in mice treated with MPLA (FIG. 1B).

Staphylococcus aureus = test: Systemic S. aureus infection after MPLA or PHADs (FIG. 8); assay type: in vivo, mice; conditions: 20 μg/mouse on day 0 and day 1; S. aureus 1×10^8 intravenously on day 2
Protocol: FIG. 8. PHADs induce bacterial clearance and promote survival post systemic S. aureus infection. […] (B) In one set of experiments, mice were euthanized at 72 hours post-infection and lung, spleen, and kidney tissues were harvested to measure bacterial burden. (C) In a separate set of experiments, mice underwent the same treatment with MPLA or PHADs, followed by infection with S. aureus. However, this group is monitored for 14 days to assess for survival. *p<0.05 compared to vehicle. N=13-16/group in the 3 day clearance experiments, performed in quadruplicate, and n=9-10/group, performed in triplicate.
In addition, mice were analyzed for survival after intravenous Staphylococcus aureus infection with treatment of MPLA or PHADs. At Day 0, mice were treated with vehicle, MPLA or PHADs (20 μg/mouse). At Day 1, mice were treated with vehicle, MPLA or PHADs (20 μg/mouse). At Day 2, mice were infected with Staphylococcus aureus (1×10^8 intravenously) and followed for survival.

[6] = MPLA 5 ug/kg, 24 hours after 20% burn
[7] = MPLA 2.5 micrograms/kg (FIG. 7 legend)

Substance: Monophosphoryl Lipid A [MPLA]
- cardiac index, mean arterial pressure, central venous pressure, stroke volume, systemic vascular resistance, peak and pause airway pressures and PaO2/FiO2 ratio [1, 6]: not significantly changed
- heart rate and pulmonary artery pressure [1, 6]: not significantly altered
- increase in core temperature ([1]; MPLA 5 ug/kg, 24 hours after 20% burn, transient, at 1 hour after start of infusion): 1 °C
- cardiac index (CI), central venous pressure (CVP) and systemic vascular resistance (SVRI) [1, 7]: minimally impacted
- mean arterial blood pressure (MAP) [1, 7]: significantly decreased at 45 and 60 minutes
- time of peak core body temperature after initiation of infusion [1, 7]: 75 min
- core body temperature ([1]; MPLA 2.5 micrograms/kg (FIG. 7 legend), from 45 minutes, still elevated at 2 hours): increased core body temperature
- heart rate (HR) ([1]; MPLA 2.5 micrograms/kg (FIG. 7 legend), returned to baseline at 90 minutes): significantly increased at 30-75 minutes
- safe dose ([1]; burned sheep, infusion over 10 minutes): 5 µg/kg
- oxygenation (PaO2/FiO2 ratio, oxygenation index, shunt fraction) (P. aeruginosa [2]; 24 hours after Pseudomonas infection, compared to controls): significantly better
- survival (P. aeruginosa [2]; 72 hour study period): All sheep survived
- PaCO2 (P. aeruginosa [2]; MPLA vs vehicle): not significantly different between groups
- decrease in plasma protein caused by pulmonary infection (P. aeruginosa [2]; MPLA vs vehicle, difference not significant): trended towards attenuation
- plasma lactate concentration (P. aeruginosa [2]; compared to controls): significantly lower
- infection-induced hypothermia (S. aureus; FIG. 2 C-F, H): attenuated infection-induced hypothermia
- kidney injury (S. aureus; FIG. 2 C-F, H): less kidney injury
- plasma cytokine concentrations (S. aureus; FIG. 2 C-F, H): lower plasma cytokine concentrations
- survival (S. aureus; intravenous S. aureus 1×10^8 CFU): 90%
- bacterial burden (peritoneal cavity) (P. aeruginosa [3]; 6 hours after challenge): decreased bacterial burden
- neutrophil and monocyte recruitment to the site of infection (P. aeruginosa [3]; 6 hours after challenge): markedly enhanced
- infection-induced hypothermia (P. aeruginosa [3]): attenuated infection-induced hypothermia
- temperature, heart rate or mean pulmonary artery pressure ([4]; MPLA 5 ug/kg infused over 10 minutes): did not change
- temperature, heart rate and mean pulmonary artery pressure ([4]; MPLA 10 or 30 ug/kg infused over 10 minutes): all parameters were increased
- MPLA dose at which humans show subjective changes consistent with systemic inflammation [5]: 10 µg/kg
- total wound bacteria and dissemination of Pseudomonas from the burn wound to the lungs (Pseudomonas aeruginosa; 20% burn, 4-6 days after infection): diminished
- survival (Pseudomonas aeruginosa; 20% burn, Pseudomonas wound infection): One hundred
- spread of bacteria within the burn wound (areas 1 and 2) (Pseudomonas aeruginosa; 20% cutaneous burn, wound inoculated in area 3): decreased spread of bacteria within the burn wound
- survival (Staphylococcus aureus): improved survival
